# Legend:
# ΔF508-CFTR [1] = target: T1, ΔF508-CFTR (Homo sapiens, UniProt P13569, DEL508-508); experiment: CFTR cell surface levels using HRP-tagged ΔF508-CFTR expressing CFBE cells, intrinsic corrector capacity; format: cell-based; conditions: HRP-tagged ΔF508-CFTR CFBE41o- cells, compounds alone (intrinsic corrector capacity), 20 hours at 33° C.; for % Activation: positive control 3 μM corrector; for EC50: read-out: EC50
# T1 construct: host or cells: CFBE41o-, doxycycline-inducible
# How it was run: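 Here the cells express ΔF508-CFTR with horseradish peroxidase inserted in extracellular loop 4, so only rescued channel at the surface gives luminescent signal. Compounds act on their own, 20 h at the reduced temperature of 33 °C; values are percent activity relative to DMSO and a 3 μM corrector.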
# ΔF508-CFTR [2] = target: T1, ΔF508-CFTR; experiment: CFTR cell surface levels using HRP-tagged ΔF508-CFTR expressing CFBE cells, in the presence of a co-corrector; format: cell-based; conditions: HRP-tagged ΔF508-CFTR expressing CFBE cells, in the presence of 3 μM co-corrector; for EC50: read-out: EC50
# How it was run: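 Cells were seeded with 0.5 μg/mL doxycycline and held 68 h at 37 °C. Test compounds plus 3 μM co-corrector (final 0.1% DMSO) were then added for 20 h at 33 °C. Washed cells received HRP substrate, and luminescence was normalized between DMSO and 3 μM co-corrector controls.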
# T1 sequence (P13569 with tags, fused parts or gaps DEL508-508): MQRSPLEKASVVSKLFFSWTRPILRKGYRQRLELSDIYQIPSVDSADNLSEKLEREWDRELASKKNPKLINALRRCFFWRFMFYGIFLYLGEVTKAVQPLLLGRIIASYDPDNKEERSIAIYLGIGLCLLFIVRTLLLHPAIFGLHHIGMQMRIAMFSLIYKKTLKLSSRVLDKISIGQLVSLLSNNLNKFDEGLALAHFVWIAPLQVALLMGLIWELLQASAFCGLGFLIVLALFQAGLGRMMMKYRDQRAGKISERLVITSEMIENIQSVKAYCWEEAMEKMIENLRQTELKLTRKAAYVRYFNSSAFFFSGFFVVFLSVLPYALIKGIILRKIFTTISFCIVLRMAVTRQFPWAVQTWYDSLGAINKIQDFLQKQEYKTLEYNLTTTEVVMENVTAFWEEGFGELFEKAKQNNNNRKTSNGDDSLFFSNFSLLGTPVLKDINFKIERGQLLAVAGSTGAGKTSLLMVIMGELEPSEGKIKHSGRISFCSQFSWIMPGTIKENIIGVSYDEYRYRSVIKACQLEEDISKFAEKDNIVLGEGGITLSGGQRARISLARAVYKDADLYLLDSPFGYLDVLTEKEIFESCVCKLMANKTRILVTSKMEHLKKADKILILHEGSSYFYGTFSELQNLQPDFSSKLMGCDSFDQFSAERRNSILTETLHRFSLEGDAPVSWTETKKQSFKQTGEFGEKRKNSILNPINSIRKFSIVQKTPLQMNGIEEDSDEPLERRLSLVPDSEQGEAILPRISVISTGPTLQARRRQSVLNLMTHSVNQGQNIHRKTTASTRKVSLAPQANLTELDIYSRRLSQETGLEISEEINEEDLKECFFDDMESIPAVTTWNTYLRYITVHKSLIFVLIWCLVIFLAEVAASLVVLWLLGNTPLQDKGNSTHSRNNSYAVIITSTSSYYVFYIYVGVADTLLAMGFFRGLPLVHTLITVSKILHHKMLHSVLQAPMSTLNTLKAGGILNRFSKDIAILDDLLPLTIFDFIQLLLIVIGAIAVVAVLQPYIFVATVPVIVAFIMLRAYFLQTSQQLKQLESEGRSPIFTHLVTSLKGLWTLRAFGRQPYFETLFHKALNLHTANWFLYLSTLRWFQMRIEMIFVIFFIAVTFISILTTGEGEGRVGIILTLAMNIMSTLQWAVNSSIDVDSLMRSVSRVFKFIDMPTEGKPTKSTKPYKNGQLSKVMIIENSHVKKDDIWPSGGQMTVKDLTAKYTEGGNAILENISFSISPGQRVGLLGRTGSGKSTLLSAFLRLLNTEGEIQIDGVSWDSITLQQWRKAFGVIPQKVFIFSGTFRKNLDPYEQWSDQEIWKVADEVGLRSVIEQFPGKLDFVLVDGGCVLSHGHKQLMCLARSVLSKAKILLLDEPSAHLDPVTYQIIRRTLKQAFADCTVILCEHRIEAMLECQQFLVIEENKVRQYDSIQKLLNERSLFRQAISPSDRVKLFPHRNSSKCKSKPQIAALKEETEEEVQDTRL
Compound,% Activation (ΔF508-CFTR [1]),EC50 (ΔF508-CFTR [1]),% Activation (ΔF508-CFTR [2]),EC50 (ΔF508-CFTR [2])
"CC(C)c1nn(-c2cccc(N3CCOCC3)c2)c2nc(C(=O)O)cc(-c3ccc(N(C)C4CCOCC4)nc3)c12 [compound 187, 4-{6-[methyl(oxan-4-yl)amino]pyridin-3-yl}-1-[3-(morpholin-4-yl)phenyl]-3-(propan-2-yl)-1H-pyrazolo[3,4-b]pyridine-6-carboxylic acid]",367.4%,674 nM,522%,565 nM
"COCCN(C)c1ccc(-c2cc(C(=O)O)nc3c2c(C(C)C)nn3-c2cccc(N3CCOCC3)c2)cc1 [compound 188, 4-{4-[(2-methoxyethyl)(methyl)amino]phenyl}-1[3-(morpholin-4-yl)phenyl]-3-(propan-2-yl)-1H-pyrazolo[3,4-b]pyridine-6-carboxylic acid]",282.4%,636 nM,432.9%,499 nM
"CC(C)c1nn(-c2cccc(N(C)C)c2)c2nc(C(=O)O)cc(-c3ccc(N(C)C4CCOCC4)nc3)c12 [compound 189, 1-[3-(dimethylamino)phenyl]-4-{6-[methyl(oxan-4-yl)amino]pyridin-3-yl}-3-(propan-2-yl)-1H-pyrazolo[3,4-b]pyridine-6-carboxylic acid]",385.02%,514 nM,590.78%,292 nM
"COC1CCCN(c2cc(C(=O)O)nc3c2c(C(C)C)nn3-c2cccc(C)c2)C1 (stereo not shown) [compound 190, 4-(3-methoxypiperidin-1-yl)-1-(3-methylphenyl)-3-(propan-2-yl)-1H-pyrazolo[3,4-b]pyridine-6-carboxylic acid]",136.12%,929 nM,301.85%,634 nM
"CN(C)c1ccc(-c2cc(C(=O)O)nc3c2c(C2CC2)nn3C2CCCCC2)cn1 [compound 193, 1-cyclohexyl-3-cyclopropyl-4-[6-(dimethylamino)pyridin-3-yl]-1H-pyrazolo[3,4-b]pyridine-6-carboxylic acid]",194.98%,633 nM,402.32%,425 nM
"CC1CN(c2ccc(-c3cc(C(=O)O)nc4c3c(C(C)C)nn4C3CCCCC3)cn2)CC(C)O1 (stereo not shown) [compound 196, 1-cyclohexyl-4-[6-(2,6-dimethylmorpholin-4-yl)pyridin-3-yl]-3-(propan-2-yl)-1H-pyrazolo[3,4-b]pyridine-6-carboxylic acid]",251.45%,555 nM,520.8%,596 nM
"CC(C)c1nn(C2CCCCC2)c2nc(C(=O)O)cc(-c3ccc(N4CCOC(C)(C)C4)nc3)c12 [compound 197, 1-cyclohexyl-4-[6-(2,2-dimethylmorpholin-4-yl)pyridin-3-yl]-3-(propan-2-yl)-1H-pyrazolo[3,4-b]pyridine-6-carboxylic acid]",219.25%,644 nM,445.2%,432 nM
"Cc1nn(-c2ccccc2)c2nc(C(=O)O)cc(-c3ccc(N4CCCC(O)C4)cc3)c12 (stereo not shown) [compound 198, 4-[4-(3-hydroxypiperidin-1-yl)phenyl]-3-methyl-1-phenyl-1H-pyrazolo[3,4-b]pyridine-6-carboxylic acid]",220%,1120 nM,364%,1010 nM
"CC(C)c1nn(-c2cccc(N(C)C)c2)c2nc(C(=O)O)cc(-c3cnc(N4CCC(C#N)CC4)nc3)c12 [compound 199, 4-[2-(4-cyanopiperidin-1-yl)pyrimidin-5-yl]-1-[3-(dimethylamino)phenyl]-3-(propan-2-yl)-1H-pyrazolo[3,4-b]pyridine-6-carboxylic acid]",356.9%,1220 nM,602.4%,917 nM
"CC(C)c1nn(-c2cccc(N(C)C)c2)c2nc(C(=O)O)cc(-c3cnc(N(C)C4CCOCC4)nc3)c12 [compound 200, 1-[3-(dimethylamino)phenyl]-4-{2-[methyl(oxan-4-yl)amino]pyrimidin-5-yl}-3-(propan-2-yl)-1H-pyrazolo[3,4-b]pyridine-6-carboxylic acid]",330.83%,438 nM,594.2%,514 nM
"Cc1cccc(-n2nc(C(C)C)c3c(N4CCC5(CC4)COC5)cc(C(=O)O)nc32)c1 [compound 202, 1-(3-methylphenyl)-4-(2-oxa-7-azaspiro[3.5]nonan-7-yl)-3-(propan-2-yl)-1H-pyrazolo[3,4-b]pyridine-6-carboxylic acid]",136.8%,795 nM,309.3%,609 nM
"CC(C)c1nn(C2CCCCC2)c2nc(C(=O)O)cc(-c3ccc(N4CCC(C)(C#N)CC4)nc3)c12 [compound 203, 4-[6-(4-cyano-4-methylpiperidin-1-yl)pyridin-3-yl]-1-cyclohexyl-3-(propan-2-yl)-1H-pyrazolo[3,4-b]pyridine-6-carboxylic acid]",162.5%,843 nM,361.75%,756 nM
"CC(C)c1nn(-c2cccc(N3CCOCC3)c2)c2nc(C(=O)O)cc(-c3ccc(N4CCC(C#N)CC4)cc3)c12 [compound 206, 4-[4-(4-cyanopiperidin-1-yl)phenyl]-1-[3-(morpholin-4-yl)phenyl]-3-(propan-2-yl)-1H-pyrazolo[3,4-b]pyridine-6-carboxylic acid]",466.87%,323 nM,661.63%,246 nM
"CC(C)c1nn(-c2cccc(N(C)C)c2)c2nc(C(=O)O)cc(-c3ccc(N(C)C4CCOCC4)cc3)c12 [compound 207, 1-[3-(dimethylamino)phenyl]-4-{4-[methyl(oxan-4-yl)amino]phenyl}-3-(propan-2-yl)-1H-pyrazolo[3,4-b]pyridine-6-carboxylic acid]",384.15%,581 nM,674.35%,380 nM
"CC(C)c1nn(-c2cccc(N3CCOCC3)c2)c2nc(C(=O)O)cc(-c3ccc(N(C)C4CCOCC4)cc3)c12 [compound 208, 4-{4-[methyl(oxan-4-yl)amino]phenyl}-1-[3-(morpholin-4-yl)phenyl]-3-(propan-2-yl)-1H-pyrazolo[3,4-b]pyridine-6-carboxylic acid]",413.75%,603 nM,673.2%,647 nM
"COCCN(C)c1cc(C(=O)O)nc2c1c(C(C)C)nn2-c1cccc(C)c1 [compound 209, 4-[(2-methoxyethyl)(methyl)amino]-1-(3-methylphenyl)-3-(propan-2-yl)-1H-pyrazolo[3,4-b]pyridine-6-carboxylic acid]",165.6%,1360 nM,411.9%,787 nM
"Cc1cccc(-n2nc(C(C)C)c3c(N4CCC(F)(F)CC4)cc(C(=O)O)nc32)c1 [compound 210, 4-(4,4-difluoropiperidin-1-yl)-1-(3-methylphenyl)-3-(propan-2-yl)-1H-pyrazolo[3,4-b]pyridine-6-carboxylic acid]",66.65%,1180 nM,261%,3340 nM
"CC(C)c1nn(-c2cncc(N3CCOCC3)c2)c2nc(C(=O)O)cc(-c3ccc(N4CCOCC4)cc3)c12 [compound 211, 4-[4-(morpholin-4-yl)phenyl]-1-[5-(morpholin-4-yl)pyridin-3-yl]-3-(propan-2-yl)-1H-pyrazolo[3,4-b]pyridine-6-carboxylic acid]",94.07%,2170 nM,289.75%,1090 nM
"COC1CN(c2cc(C(=O)O)nc3c2c(C(C)C)nn3-c2cccc(C)c2)C1 [compound 212, 4-(3-methoxyazetidin-1-yl)-1-(3-methylphenyl)-3-(propan-2-yl)-1H-pyrazolo[3,4-b]pyridine-6-carboxylic acid]",139.7%,2640 nM,386.9%,1490 nM
"CO[C@@H]1CCC[C@@H](n2nc(C(C)C)c3c(-c4ccc(N5CCOCC5)cc4)cc(C(=O)O)nc32)C1 [compound 214, 1-[(1R,3R)-3-methoxycyclohexyl]-4-[4-(morpholin-4-yl)phenyl]-3-(propan-2-yl)-1H-pyrazolo[3,4-b]pyridine-6-carboxylic acid]",154%,820 nM,323%,609 nM
"Cc1cccc(-n2nc(C(C)C)c3c(N4CCC(C(F)(F)F)C4)cc(C(=O)O)nc32)c1 (stereo not shown) [compound 215, 1-(3-methylphenyl)-3-(propan-2-yl)-4-[3-(trifluoromethyl)pyrrolidin-1-yl]-1H-pyrazolo[3,4-b]pyridine-6-carboxylic acid]",165.95%,1030 nM,347.15%,915 nM
"Cc1cccc(-n2nc(C(C)C)c3c(N4CC5CN(C(=O)OC(C)(C)C)CC5C4)cc(C(=O)O)nc32)c1 (stereo not shown) [compound 216, 4-[5-(tert-butoxycarbonyl)hexahydropyrrolo[3,4-c]pyrrol-2(1H)-yl]-1-(3-methylphenyl)-3-(propan-2-yl)-1H-pyrazolo[3,4-b]pyridine-6-carboxylic acid]",161%,1010 nM,431.7%,1110 nM

# Source: patent publication US9796711B2, “Substituted pyrazolo[3,4-b]pyridin-6-carboxylic acids and method of use” (AbbVie S.àr.l., priority 2015, dated 2017)
